Earlier results as cited in publication PMC9851200, “Multiparameter phenotypic screening for endogenous TFEB and TFE3 translocation identifies novel chemical series modulating lysosome function” (Autophagy, 2022).

Columns and labels:
Parameters in all cases: method as in original PKIS2 published data
[1] = biological target: kinases (KINOMEscan panel) (Homo sapiens, UniProt P35590); conditions: TIE1; Published KINOMEscan; ref original PKIS2 published data; cited from earlier work
[2] = biological target: T1, kinases (KINOMEscan panel) (Homo sapiens, UniProt Q6P3R8); conditions: kinase NEK5; Published KINOMEscan; ref original PKIS2 published data; cited from earlier work
T1 sequence (Q6P3R8 1-708): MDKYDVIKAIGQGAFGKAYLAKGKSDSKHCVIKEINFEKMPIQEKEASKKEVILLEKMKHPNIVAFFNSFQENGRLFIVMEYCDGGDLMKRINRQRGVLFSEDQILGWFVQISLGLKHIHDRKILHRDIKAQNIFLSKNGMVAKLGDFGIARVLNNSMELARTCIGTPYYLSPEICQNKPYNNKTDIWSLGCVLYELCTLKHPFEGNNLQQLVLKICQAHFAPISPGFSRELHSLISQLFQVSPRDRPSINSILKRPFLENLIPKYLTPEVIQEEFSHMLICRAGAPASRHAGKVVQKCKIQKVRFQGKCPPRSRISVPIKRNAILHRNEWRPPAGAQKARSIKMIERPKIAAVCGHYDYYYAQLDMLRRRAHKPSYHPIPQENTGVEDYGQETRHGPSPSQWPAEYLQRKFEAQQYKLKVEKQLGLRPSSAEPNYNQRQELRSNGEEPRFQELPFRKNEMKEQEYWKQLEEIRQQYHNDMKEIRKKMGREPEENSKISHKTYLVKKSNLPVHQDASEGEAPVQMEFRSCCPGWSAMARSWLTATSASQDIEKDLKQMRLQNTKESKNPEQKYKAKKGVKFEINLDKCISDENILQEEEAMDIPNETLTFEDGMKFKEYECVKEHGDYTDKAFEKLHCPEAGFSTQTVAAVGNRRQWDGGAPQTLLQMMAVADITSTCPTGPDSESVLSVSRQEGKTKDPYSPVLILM

[3] = biological target: T2, kinases (KINOMEscan panel) (Homo sapiens, UniProt Q9UQ88); conditions: Published KINOMEscan; ref original PKIS2 published data; cited from earlier work
T2 sequence (Q9UQ88 1-783): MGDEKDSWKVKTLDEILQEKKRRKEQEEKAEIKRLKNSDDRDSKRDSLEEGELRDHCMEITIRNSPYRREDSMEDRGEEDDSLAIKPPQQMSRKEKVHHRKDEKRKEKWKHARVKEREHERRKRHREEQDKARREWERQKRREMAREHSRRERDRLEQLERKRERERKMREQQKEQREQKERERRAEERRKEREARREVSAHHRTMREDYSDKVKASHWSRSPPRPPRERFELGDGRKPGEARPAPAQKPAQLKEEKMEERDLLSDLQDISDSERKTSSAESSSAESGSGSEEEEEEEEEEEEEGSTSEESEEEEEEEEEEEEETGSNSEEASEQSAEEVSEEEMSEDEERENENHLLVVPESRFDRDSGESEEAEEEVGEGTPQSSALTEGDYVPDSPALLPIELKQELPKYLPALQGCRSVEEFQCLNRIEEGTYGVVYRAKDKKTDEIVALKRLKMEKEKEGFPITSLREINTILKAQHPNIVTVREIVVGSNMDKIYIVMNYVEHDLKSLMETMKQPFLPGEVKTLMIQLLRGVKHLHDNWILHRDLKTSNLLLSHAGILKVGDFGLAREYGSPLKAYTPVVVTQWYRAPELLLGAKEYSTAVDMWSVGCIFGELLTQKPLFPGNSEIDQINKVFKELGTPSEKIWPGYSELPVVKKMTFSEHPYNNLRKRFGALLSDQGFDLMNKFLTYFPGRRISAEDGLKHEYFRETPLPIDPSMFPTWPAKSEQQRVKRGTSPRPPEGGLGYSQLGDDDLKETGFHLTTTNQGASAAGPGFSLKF

[4] = biological target: kinases (KINOMEscan panel) (Homo sapiens, UniProt P23458); conditions: JAK1(JH1domain-catalytic); Published KINOMEscan; ref original PKIS2 published data; cited from earlier work
kinases (KINOMEscan panel) (Homo sapiens, UniProt P23458), sequence (P23458 whole entry): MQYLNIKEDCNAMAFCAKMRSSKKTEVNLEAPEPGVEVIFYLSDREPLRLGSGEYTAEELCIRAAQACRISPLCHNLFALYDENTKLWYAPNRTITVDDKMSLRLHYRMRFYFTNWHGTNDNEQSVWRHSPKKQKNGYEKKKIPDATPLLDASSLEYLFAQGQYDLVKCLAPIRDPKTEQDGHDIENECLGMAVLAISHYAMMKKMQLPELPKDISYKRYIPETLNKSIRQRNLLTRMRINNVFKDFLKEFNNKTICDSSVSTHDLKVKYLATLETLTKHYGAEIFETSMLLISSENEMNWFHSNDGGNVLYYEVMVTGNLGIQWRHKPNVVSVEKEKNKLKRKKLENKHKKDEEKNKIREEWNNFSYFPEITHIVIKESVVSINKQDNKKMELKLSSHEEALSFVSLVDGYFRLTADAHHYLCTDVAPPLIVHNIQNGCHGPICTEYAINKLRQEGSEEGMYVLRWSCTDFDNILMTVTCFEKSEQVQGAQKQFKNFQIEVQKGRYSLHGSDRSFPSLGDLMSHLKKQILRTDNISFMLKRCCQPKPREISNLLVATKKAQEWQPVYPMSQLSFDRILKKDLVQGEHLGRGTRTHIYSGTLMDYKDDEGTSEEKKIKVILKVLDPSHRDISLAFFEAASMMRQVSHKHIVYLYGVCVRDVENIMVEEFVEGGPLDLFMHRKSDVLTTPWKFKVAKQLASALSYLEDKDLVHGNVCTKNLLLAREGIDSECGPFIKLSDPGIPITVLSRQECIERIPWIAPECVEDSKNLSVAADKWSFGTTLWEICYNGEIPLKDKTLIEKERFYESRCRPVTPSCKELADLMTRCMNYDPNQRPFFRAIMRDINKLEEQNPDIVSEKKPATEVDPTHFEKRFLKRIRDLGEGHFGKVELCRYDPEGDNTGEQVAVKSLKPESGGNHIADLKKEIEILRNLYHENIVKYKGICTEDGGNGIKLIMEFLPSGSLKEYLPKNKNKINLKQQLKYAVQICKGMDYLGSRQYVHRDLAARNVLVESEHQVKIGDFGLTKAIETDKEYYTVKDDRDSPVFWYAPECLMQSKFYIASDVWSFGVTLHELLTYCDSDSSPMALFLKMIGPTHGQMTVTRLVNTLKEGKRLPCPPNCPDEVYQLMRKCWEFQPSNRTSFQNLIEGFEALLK

[5] = biological target: T3, kinases (KINOMEscan panel) (Homo sapiens, UniProt Q9UPZ9); conditions: CILK1; Published KINOMEscan; ref original PKIS2 published data; cited from earlier work
T3 sequence (Q9UPZ9 1-632): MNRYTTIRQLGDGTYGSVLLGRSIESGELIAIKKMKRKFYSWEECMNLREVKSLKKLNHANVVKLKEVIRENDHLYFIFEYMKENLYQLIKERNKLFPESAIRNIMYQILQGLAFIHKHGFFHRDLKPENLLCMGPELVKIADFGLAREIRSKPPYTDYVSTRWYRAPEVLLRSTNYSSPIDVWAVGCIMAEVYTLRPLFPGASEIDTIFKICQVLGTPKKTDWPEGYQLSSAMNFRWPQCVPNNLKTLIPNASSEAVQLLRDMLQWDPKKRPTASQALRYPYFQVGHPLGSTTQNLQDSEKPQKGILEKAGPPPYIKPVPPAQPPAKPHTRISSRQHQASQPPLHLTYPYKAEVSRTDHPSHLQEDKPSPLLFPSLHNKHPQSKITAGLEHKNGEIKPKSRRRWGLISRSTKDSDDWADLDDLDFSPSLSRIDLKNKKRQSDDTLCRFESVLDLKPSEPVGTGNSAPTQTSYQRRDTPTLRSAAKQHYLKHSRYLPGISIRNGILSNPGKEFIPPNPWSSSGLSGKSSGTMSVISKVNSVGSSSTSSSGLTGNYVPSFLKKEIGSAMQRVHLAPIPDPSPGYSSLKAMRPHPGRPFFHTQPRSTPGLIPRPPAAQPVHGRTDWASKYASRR

[6] = biological target: kinases (KINOMEscan panel) (Homo sapiens, UniProt P10721); conditions: Published KINOMEscan, ref original PKIS2 published data, cited from earlier work
kinases (KINOMEscan panel) (Homo sapiens, UniProt P10721), sequence (P10721 26-976): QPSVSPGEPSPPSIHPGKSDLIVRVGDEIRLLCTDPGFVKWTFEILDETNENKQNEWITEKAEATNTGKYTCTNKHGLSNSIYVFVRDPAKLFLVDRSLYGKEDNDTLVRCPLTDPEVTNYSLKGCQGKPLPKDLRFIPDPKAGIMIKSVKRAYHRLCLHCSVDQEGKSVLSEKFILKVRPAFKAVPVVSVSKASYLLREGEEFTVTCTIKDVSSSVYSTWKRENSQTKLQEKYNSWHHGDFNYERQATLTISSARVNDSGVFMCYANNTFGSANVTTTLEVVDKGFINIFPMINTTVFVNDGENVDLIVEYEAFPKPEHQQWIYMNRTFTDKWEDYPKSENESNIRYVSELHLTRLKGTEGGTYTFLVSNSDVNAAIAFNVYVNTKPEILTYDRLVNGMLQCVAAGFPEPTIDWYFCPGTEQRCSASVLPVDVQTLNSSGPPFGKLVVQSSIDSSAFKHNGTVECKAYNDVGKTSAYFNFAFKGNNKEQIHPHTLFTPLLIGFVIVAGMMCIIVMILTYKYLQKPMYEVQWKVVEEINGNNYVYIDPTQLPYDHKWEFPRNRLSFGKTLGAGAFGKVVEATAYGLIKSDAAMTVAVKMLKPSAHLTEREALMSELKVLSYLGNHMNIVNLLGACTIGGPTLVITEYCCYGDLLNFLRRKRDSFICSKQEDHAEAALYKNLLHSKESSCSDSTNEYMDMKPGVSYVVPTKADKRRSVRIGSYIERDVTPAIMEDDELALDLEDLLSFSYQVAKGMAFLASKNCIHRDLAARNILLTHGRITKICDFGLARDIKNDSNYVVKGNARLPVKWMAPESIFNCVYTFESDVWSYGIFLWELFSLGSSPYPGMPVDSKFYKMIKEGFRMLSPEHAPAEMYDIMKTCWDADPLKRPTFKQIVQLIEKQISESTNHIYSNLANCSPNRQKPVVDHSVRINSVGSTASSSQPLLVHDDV

kinases (KINOMEscan panel) (Homo sapiens, UniProt P35590), sequence (P35590 22-1138): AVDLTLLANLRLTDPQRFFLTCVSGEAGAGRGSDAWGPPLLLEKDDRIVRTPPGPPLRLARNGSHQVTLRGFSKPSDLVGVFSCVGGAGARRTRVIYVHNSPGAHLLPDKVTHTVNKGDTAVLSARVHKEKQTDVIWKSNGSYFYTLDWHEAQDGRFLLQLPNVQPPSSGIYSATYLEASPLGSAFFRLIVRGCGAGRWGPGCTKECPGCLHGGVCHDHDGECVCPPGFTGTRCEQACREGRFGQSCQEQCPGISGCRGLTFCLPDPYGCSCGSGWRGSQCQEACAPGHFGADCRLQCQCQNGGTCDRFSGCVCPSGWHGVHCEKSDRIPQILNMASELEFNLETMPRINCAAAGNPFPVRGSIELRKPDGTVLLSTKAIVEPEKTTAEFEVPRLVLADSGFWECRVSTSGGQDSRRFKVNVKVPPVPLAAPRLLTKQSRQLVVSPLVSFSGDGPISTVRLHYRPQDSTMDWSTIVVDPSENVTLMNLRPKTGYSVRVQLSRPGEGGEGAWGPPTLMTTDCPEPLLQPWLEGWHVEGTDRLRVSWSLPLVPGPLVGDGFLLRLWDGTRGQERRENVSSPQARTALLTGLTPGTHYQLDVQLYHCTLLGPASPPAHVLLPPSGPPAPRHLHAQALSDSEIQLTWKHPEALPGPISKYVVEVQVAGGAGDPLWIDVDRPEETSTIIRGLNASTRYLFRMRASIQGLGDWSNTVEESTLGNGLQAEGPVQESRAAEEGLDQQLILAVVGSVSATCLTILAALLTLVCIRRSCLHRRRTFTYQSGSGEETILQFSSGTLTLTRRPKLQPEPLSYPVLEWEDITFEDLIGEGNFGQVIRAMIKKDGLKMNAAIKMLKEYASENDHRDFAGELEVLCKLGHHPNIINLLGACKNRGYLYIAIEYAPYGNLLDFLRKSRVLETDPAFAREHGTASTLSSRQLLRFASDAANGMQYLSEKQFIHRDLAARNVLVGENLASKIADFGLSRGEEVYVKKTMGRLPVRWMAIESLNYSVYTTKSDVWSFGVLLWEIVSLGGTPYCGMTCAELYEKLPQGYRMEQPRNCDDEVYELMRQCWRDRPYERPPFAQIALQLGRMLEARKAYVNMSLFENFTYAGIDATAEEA

## Cc1cccc(-c2nc(Nc3ccncc3)c3ccccc3n2)n1 [NK215]
[1]
  KINOMEscan TIE1: 20
[2]
  KINOMEscan NEK5: 10
[3]
  KINOMEscan CDK11A: 0
[4]
  KINOMEscan JAK1(JH1domain-catalytic): 0
[5]
  KINOMEscan CILK1: 0
[6]; KIT-autoinhibited
  KINOMEscan KIT-autoinhibited: 0
[6]; KIT
  KINOMEscan KIT: 10
